Publication PMC8070514, “Antibacterial and Antibiofilm Activities of Novel Antimicrobial Peptides against Multidrug-Resistant Enterotoxigenic Escherichia Coli” (International Journal of Molecular Sciences, 2021)
Ends that are not written are not given here.

Columns and labels:
[1] = test system: MDR ETEC strain (clinical isolate); test: Resistance of the MDR ETEC strain to conventional antibiotics; format: cell-based, Escherichia coli; conditions: method not given
Method: (§1) The MDR ETEC strain used in this study was a clinical isolate kindly provided by our co-author, Dr. Hui-Wen Chang from Department of Veterinary Medicine and Graduate Institute of Molecular and Comparative Pathobiology, School of Veterinary Medicine, National Taiwan University. […] Glycerol stocks (20%, v/v) were maintained at −86 °C for long-term storage.

[2] = test system: MDR ETEC (multidrug-resistant enterotoxigenic Escherichia coli); conditions: MDR ETEC clinical isolate; 96-well microtiter plates, 10^4 CFU/mL inoculum, 48 h at 37 °C, absorbance 600 nm; lowest concentration that completely inhibits visible growth
Method: as §1
Cultures were examined for growth after 48 h incubation at 37 °C, and the absorbance at 600 nm was measured.

[3] = Hemolytic activity, minimal hemolysis concentration (MHC); format: cell-based; conditions: method not described
[4] = test system: intestinal porcine epithelial cell line-1 (IPEC-1); test: Cell viability (MTT) assay, IPEC-1; format: cell-based; conditions: IPEC-1, 24 h exposure
Method: (§2) The IPEC-1 and IPEC-J2 cell lines were kindly provided by Dr. Je-Ruei Liu from Institute of Biotechnology and Department of Animal Science and Technology, National Taiwan University. The culture conditions and protocols were according to Koh et al. with slight modifications. Both IPEC-1 and IPEC-J2 cells were seeded on 9-cm cell culture dishes and were cultured and maintained in Dulbecco’s modified Eagle medium (DMEM)/nutrient mixture F-12 (GeneDireX, Taipei, Taiwan) supplemented with 10% fetal bovine serum (FBS; Hyclone, Cytiva, Washington DC, USA). The cultures were maintained in a humidified incubator in an atmosphere of 5% CO2 at 37 °C. After 4 to 5 days of culturing, both cell lines became confluent. Cell monolayers were washed with 3–5 mL Dulbecco’s phosphate buffered saline (DPBS, Amresco, Solon, OH, USA) and trypsinized with 1× trypsin-EDTA. The detached cells were pelleted at 200× g for 5 min, re-suspended in antibiotic-free medium, and used for subsequent adherence assays. […]
(§3) The viability of both IPEC-1 and IPEC-J2 cells after treated with AMP Q4-15a-1 was evaluated using 3-(4,5-dimethylthiazol-2-yl)-2,5-diphenyltetrazolium bromide (MTT, Amresco, Solon, OH, USA) assays performed in triplicate in three independent experiments. […] Absorbance at 570 nm of the maximum was detected by a multimode microplate reader SpectraMax M2 (Molecular Devices, San Jose, CA, USA). […]

[5] = test system: intestinal porcine epithelial cell line-J2 (IPEC-J2); test: Cell viability (MTT) assay, IPEC-J2; format: cell-based; conditions: IPEC-J2, 24 h exposure
Method: as §2, §3

[6] = test system: Acinetobacter baumannii biofilms; conditions: 32 and 64 μg/mL; cited from earlier work
Text: Biofilm is a microbial community that adheres to the surface of various substances and encapsulates themselves in an autologous extracellular matrix. It is a critical issue to manage biofilms in clinical treatment. The matrix of the biofilm plays an important role in the mechanism of resistance to antibiotics, which constitutes a barrier to delay or prevent the interaction of antibiotics with microbial cells, depending on the extracellular polymeric substances and the charge of antimicrobial agents. The latter can be isolated or repelled, thereby reducing its effect on biofilms [[36],[3 ...

Row | Compound | Susceptibility of the MDR ETEC strain [1] | also measured
1 | CC1(C)S[C@@H]2[C@H](NC(=O)[C@H](N)c3ccccc3)C(=O)N2[C@H]1C(=O)O [ampicillin] | resistant | –
2 | CC1=C(C(=O)O)N2C(=O)[C@@H](NC(=O)[C@H](N)c3ccc(O)cc3)[C@H]2SC1 [cefadroxil] | resistant | –
3 | C=CC1=C(C(=O)O)N2C(=O)[C@@H](NC(=O)/C(=N\OCC(=O)O)c3csc(N)n3)[C@H]2SC1 [cefixime] | resistant | –
4 | CC(C)(O/N=C(\C(=O)N[C@@H]1C(=O)N2C(C(=O)[O-])=C(C[n+]3ccccc3)CS[C@H]12)c1csc(N)n1)C(=O)O [ceftazidime] | resistant | –
5 | CO/N=C(\C(=O)N[C@@H]1C(=O)N2C(C(=O)O)=C(COC(N)=O)CS[C@H]12)c1ccco1 [cefuroxime] | resistant | –
6 | CC(=O)OCC1=C(C(=O)O)N2C(=O)[C@@H](NC(=O)Cc3cccs3)[C@H]2SC1 [cephalothin] | resistant | –
7 | O=C(N[C@H](CO)[C@H](O)c1ccc([N+](=O)[O-])cc1)C(Cl)Cl [chloramphenicol] | resistant | –
8 | C[C@H]1c2cccc(O)c2C(=O)C2=C(O)[C@]3(O)C(=O)C(C(N)=O)=C(O)[C@@H](N(C)C)[C@@H]3[C@@H](O)[C@@H]21 [doxycycline] | resistant | –
9 | CCN1CCN(c2cc3c(cc2F)c(=O)c(C(=O)O)cn3C2CC2)CC1 [enrofloxacin] | resistant | –
10 | CC1CCc2cc(F)cc3c(=O)c(C(=O)O)cn1c23 (stereo not drawn) [flumequine] | resistant | –
11 | CNC(C)C1CCC(N)C(OC2C(N)CC(N)C(OC3OCC(C)(O)C(NC)C3O)C2O)O1 (stereo not drawn) [gentamicin] | resistant | –
12 | NC[C@H]1O[C@H](O[C@H]2[C@H](O)[C@@H](O[C@H]3O[C@H](CO)[C@@H](O)[C@H](N)[C@H]3O)[C@H](N)C[C@@H]2N)[C@H](O)[C@@H](O)[C@@H]1O [kanamycin] | resistant | –
13 | CN(C)c1ccc(O)c2c1C[C@H]1C[C@H]3[C@H](N(C)C)C(O)=C(C(N)=O)C(=O)[C@@]3(O)C(O)=C1C2=O [minocycline] | resistant | –
14 | CCn1cc(C(=O)O)c(=O)c2ccc(C)nc21 [nalidixic acid] | resistant | –
15 | O=C1CN(/N=C/c2ccc([N+](=O)[O-])o2)C(=O)N1 [nitrofurantoin] | moderately susceptible | –
16 | CCn1cc(C(=O)O)c(=O)c2cc(F)c(N3CCNCC3)cc21 [norfloxacin] | resistant | –

Row | Compound | Susceptibility of the MDR ETEC strain [1] | also measured
17 | CC1COc2c(N3CCN(C)CC3)c(F)cc3c(=O)c(C(=O)O)cn1c23 (stereo not drawn) [ofloxacin] | resistant | –
18 | CCN1CCN(C(=O)N[C@@H](C(=O)N[C@@H]2C(=O)N3[C@@H]2SC(C)(C)[C@@H]3C(=O)O)c2ccccc2)C(=O)C1=O [piperacillin] | resistant | –
19 | [H]/N=C(/N)N[C@H]1[C@H](O)[C@@H](O)[C@H](O[C@@H]2O[C@@H](C)[C@](O)(C=O)[C@H]2O[C@@H]2O[C@@H](CO)[C@H](O)[C@@H](O)[C@@H]2NC)[C@@H](N/C(N)=N\[H])[C@@H]1O [streptomycin] | resistant | –
20 | CN(C)[C@@H]1C(O)=C(C(N)=O)C(=O)[C@@]2(O)C(O)=C3C(=O)c4c(O)cccc4[C@@](C)(O)[C@H]3C[C@@H]12 [tetracycline] | resistant | –
21 | NC[C@H]1O[C@H](O[C@H]2[C@H](O)[C@@H](O[C@H]3O[C@H](CO)[C@@H](O)[C@H](N)[C@H]3O)[C@H](N)C[C@@H]2N)[C@H](N)C[C@@H]1O [tobramycin] | resistant | –
22 | GANAAKKFATIAKKFINYLW [GW-Q4] | – | MIC [2]: 32 µg/mL; MHC (minimal hemolysis concentration) [3]: 128 µg/mL
23 | GANAAKKFATIAKKFINYLW-NH2 [GW-Q4a] | – | MIC [2]: 8 µg/mL; MHC (minimal hemolysis concentration) [3]: 32 µg/mL
24 | KKFATIAKKFINKLW [Peptide Q4-15-1] | – | MIC [2]: 8 µg/mL; MHC (minimal hemolysis concentration) [3]: 256 µg/mL
25 | KKFATIAKKFINKLW-NH2 [Peptide Q4-15a-1] | – | MIC [2]: 4 µg/mL; IC20 (cell viability, MTT) [4]: around 100 μg/mL; IC20 (cell viability, MTT) [5]: around 100 μg/mL; MHC (minimal hemolysis concentration) [3]: 256 µg/mL
26 | KKFATIAKKFINWLW [Peptide Q4-15-2] | – | MIC [2]: 4 µg/mL; MHC (minimal hemolysis concentration) [3]: 32 µg/mL
27 | KKFATIAKKFINWLW-NH2 [Peptide Q4-15a-2] | – | MIC [2]: 2 µg/mL; MHC (minimal hemolysis concentration) [3]: 16 µg/mL
28 | KKFATIAKKFINYLW [Peptide Q4-15] | – | MIC [2]: 8 µg/mL; MHC (minimal hemolysis concentration) [3]: 128 µg/mL
29 | KKFATIAKKFINYLW-NH2 [Peptide Q4-15a] | – | MIC [2]: 4 µg/mL; MHC (minimal hemolysis concentration) [3]: 16 µg/mL
30 | LL37 | – | Effect on two Acinetobacter baumannii biofilms [6]: inhibitory effect
31 | penicillin | resistant | –
32 | polymyxin B | moderately susceptible | –
